Several values for one entry are separate records, joined by “and”; a condition that tells them apart may be missing. Equal values may be shown once. Read-outs that look alike come from different tables or passages of the source.
Columns and labels:
[1] = target: T1, recombinant human muscarinic M3 receptor (Homo sapiens, UniProt P20309); test: competitive binding against [3H]NMS, CHO cell membranes, M3; details: for affinity for M3 (in words): [3H]NMS competition; for selectivity ratio for M2 over M3: ratio of Ki, [3H]NMS
T1 construct: purchased Perkin Elmer, Waltham, USA; host or cells: CHO cells (membrane suspensions)
T1 sequence (P20309 whole entry): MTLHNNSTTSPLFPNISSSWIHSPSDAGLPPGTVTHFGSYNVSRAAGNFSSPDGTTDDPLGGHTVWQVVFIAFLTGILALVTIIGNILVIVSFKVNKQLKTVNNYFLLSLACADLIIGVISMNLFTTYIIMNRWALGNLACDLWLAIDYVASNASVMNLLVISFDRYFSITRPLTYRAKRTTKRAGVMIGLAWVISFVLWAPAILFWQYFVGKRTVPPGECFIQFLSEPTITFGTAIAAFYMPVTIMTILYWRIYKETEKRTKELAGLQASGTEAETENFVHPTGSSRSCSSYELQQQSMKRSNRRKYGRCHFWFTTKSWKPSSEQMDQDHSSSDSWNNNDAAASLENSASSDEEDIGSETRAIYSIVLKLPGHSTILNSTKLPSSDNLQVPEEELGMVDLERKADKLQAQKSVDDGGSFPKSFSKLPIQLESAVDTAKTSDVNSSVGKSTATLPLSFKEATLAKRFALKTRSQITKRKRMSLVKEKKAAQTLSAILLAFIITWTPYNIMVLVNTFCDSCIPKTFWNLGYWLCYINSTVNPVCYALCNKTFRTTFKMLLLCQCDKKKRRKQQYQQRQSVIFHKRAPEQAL
Procedure: (§1) Assays were performed on membrane suspensions from CHO cells expressing either the recombinant human muscarinic M1, M2, or the M3 receptor subtype (Perkin Elmer, Waltham, USA).
(§2) In the competitive binding assays, incubation buffer contained 50 mM TRIS-HCl, 10 mM MgCl2, and 1 mM EDTA (pH 7.4 at 4°C). The assays were incubated during 60 min (M1 or M2 receptor subtypes) or 120 min (M3 receptor subtypes) at 27°C. Nonspecific binding was determined using atropine as a competitor in a concentration of 1 μM.
(§3) In the first series of competitive binding assays, the 6β-4′-iodobenzyl ether (5b) and the 6β-4′-iodobenzoate ester (5c) of 6β-nortropinol, as well as the lead compound 6β-acetoxynortropane (5a), were tested. Protein concentrations for undiluted receptor subtype suspensions were 1.2 mg/mL (M1), 4.3 mg/mL (M2), and 2.0 mg/mL (M3). […] Final competitor concentrations ranged from 1.0 · 10^−10 M to 1.0 · 10^−4 M. After incubation, the reaction was rapidly terminated by vacuum filtration over GF/C glass fiber filters, presoaked in 0.3% polyethylenimine (Sigma-Aldrich, Munich, Germany), and washed 5 times with 1 mL of ice-cold buffer. Filters were placed in vials with 10 mL of scintillation fluid (Ultima Gold, Perkin Elmer, Waltham, USA) and counted in a liquid scintillation counter (Tri-Carb 2900 TR Liquid Scintillation Analyzer, Packard. Software version: 3100).
(§4) In the second series of competitive binding assays, derivative 10a and 10b and the lead compound 6β-acetoxynortropane (5a) were tested. In this series, the protein concentrations for undiluted receptor subtype suspensions were 0.6 mg/mL (M1), 7.5 mg/mL (M2), and 1.5 mg/mL (M3). […] Final competitor concentrations ranged from 1.0 · 10^−10 M to 1.0 · 10^−5 M. After incubation, the assays were filtrated over UniFilter 96 GF/C filter plates, presoaked in 0.3% polyethylenimine (Sigma-Aldrich, Munich, Germany), and washed 9 times with 200 μL of ice-cold buffer. 30 μL of scintillation fluid (MicroScint, Perkin Elmer, Waltham, USA) was added, and the filter plates were counted in a liquid scintillation counter (TopCount 5.0 Liquid Scintillation Analyzer, Perkin Elmer, Waltham, USA).

[2] = target: T2, recombinant human muscarinic M1 receptor (Homo sapiens, UniProt P11229); test: competitive binding against [3H]NMS, CHO cell membranes, M1; details: for affinity for M1 (in words): [3H]NMS competition; for selectivity ratio for M2 over M1: ratio of Ki, [3H]NMS
T2 construct: purchased Perkin Elmer, Waltham, USA; host or cells: CHO cells (membrane suspensions)
T2 sequence (P11229 whole entry): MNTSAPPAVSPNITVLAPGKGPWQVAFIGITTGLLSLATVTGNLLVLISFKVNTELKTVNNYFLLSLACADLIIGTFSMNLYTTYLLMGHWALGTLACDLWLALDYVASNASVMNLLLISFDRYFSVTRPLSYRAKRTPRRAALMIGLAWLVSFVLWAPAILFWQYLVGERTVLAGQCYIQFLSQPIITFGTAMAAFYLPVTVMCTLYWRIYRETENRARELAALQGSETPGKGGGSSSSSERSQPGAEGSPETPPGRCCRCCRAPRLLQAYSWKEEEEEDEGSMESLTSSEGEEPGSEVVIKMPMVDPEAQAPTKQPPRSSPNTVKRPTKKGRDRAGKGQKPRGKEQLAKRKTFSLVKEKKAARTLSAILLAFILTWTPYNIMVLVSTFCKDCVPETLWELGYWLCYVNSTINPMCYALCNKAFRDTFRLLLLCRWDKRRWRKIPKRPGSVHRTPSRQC
Procedure: as §1, §2, §3, §4

[3] = target: T3, recombinant human muscarinic M2 receptor (Homo sapiens, UniProt P08172); test: competitive binding against [3H]NMS, CHO cell membranes, M2; details: for affinity for M2 (in words): [3H]NMS competition
T3 construct: purchased Perkin Elmer, Waltham, USA; host or cells: CHO cells (membrane suspensions)
T3 sequence (P08172 1-466): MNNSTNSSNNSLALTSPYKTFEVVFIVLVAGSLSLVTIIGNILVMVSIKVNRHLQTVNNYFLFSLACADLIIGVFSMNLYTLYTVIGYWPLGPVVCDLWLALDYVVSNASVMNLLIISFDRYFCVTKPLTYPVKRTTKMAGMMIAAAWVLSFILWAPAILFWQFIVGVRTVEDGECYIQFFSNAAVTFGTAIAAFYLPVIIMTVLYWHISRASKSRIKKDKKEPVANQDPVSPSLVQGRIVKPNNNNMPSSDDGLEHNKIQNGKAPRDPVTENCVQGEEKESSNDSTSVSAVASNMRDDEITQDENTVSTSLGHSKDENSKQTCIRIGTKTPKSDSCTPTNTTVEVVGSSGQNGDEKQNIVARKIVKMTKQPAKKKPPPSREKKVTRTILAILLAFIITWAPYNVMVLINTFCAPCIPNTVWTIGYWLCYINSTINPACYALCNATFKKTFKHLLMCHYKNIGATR
Procedure: as §1, §2, §3, §4

muscarinic M2 receptor = details: [3H]QNB as reference tracer; ref 27 (Pei et al.); cited from earlier work
[4] = first series, n = 3, [3H]NMS 0.2 nM, read-out: Ki for M2

Row | Structure (SMILES) | affinity for M3 (in words) [1] | selectivity ratio for M2 over M3 [1] | affinity for M1 (in words) [2] | selectivity ratio for M2 over M1 [2] | affinity for M2 (in words) [3] | Ki [3, 4] | selectivity ratio to the M3 ([1]; abstract) | selectivity ratio to the M1 ([2]; abstract) | Ki (muscarinic M2 receptor) | Ki ([3]; Ki for M2, first series/experiment, n = 3, [3H]NMS 0.2 nM, average ± SD) | Ki ([3]; Ki for M2, second series/experiment, n = 4, [3H]NMS 0.13 nM, average ± SD) | Ki ([3]; Ki to M2 receptors, range over both experiments (abstract))
1 | Ic1ccc(COC2CC3CCCC2N3)cc1 (stereo not drawn) [5b, 6β-4′-iodobenzyl ether of 6β-nortropinol] | weak affinity | 0.2 | weak affinity | 0.1 | weak affinity | 3000 nM | – | – | – | – | – | –
2 | CC(=O)OC1CC2CCCC1N2 (stereo not drawn) [5a, 6β-acetoxynortropane, reference compound] | – | ~70 | – | approximately 65 | – | – | 70 fold | 65 fold | 2.6 nM | 88.1 nM and 88 nM | 71.6 nM and 71 nM | 70 to 90 nM
3 | O=C(OC1CC2CCCC1N2)c1ccc(I)cc1 (stereo not drawn) [5c, 6β-4′-iodobenzoate ester of 6β-nortropinol] | weak affinity | 2.0 | weak affinity | 0.6 | weak affinity | 6800 nM | – | – | – | – | – | –

Source: paper PMC3132655, “Synthesis and In Vitro Evaluation of Novel Nortropane Derivatives as Potential Radiotracers for Muscarinic M2 Receptors” (International Journal of Molecular Imaging, 2011)
